Reference: ChEMBL document CHEMBL4421722, “Inhibitors of protein prenyltransferases” (2013)
Active and inactive are the calls of the source. The calls are words filed in the database; no cut-off is given here.

System: not listed separately
Assay: Inhibition of rat recombinant geranylgeranyltransferase type I expressed in Escherichia coli assessed as reduction in geranylgeranylation of RhoA incubated for 30 mins in presence of [3H]GGPP by scintillation counting assay relative to control
Conditions: not given
For `Cc1ccccc1S(=O)(=O)N1[C@@H](c2cccc(Cl)c2)C(C(=O)N[C@@H](CC(C)C)C(N)=O)=CC[C@H]1c1ccc(Cl)cc1`, the IC50 was > 50 µM.
With `CCCCCS[C@H]1[C@@H](C(=O)O)[C@H](c2ccc(Br)cc2)N(S(=O)(=O)c2ccc(C)cc2)[C@@H]1CCC` the IC50 was > 50 µM.

System: K562
Assay: Antiproliferative activity against human K562 cells assessed as inhibition of cell proliferation incubated for 72 hrs by CCK8 assay
Type: functional, cell-based
Conditions: K562, 72 h
`CC(C)C[C@H](NC(=O)C1=CC[C@@H](c2cccc(Br)c2)N(S(=O)(=O)c2ccc(Cl)cc2)[C@H]1c1cccc(Cl)c1)C(N)=O` showed a GI50 of 7.06 µM.
With `Cc1ccccc1S(=O)(=O)N1[C@@H](c2cccc(Cl)c2)C(C(=O)N[C@@H](CC(C)C)C(N)=O)=CC[C@H]1c1ccc(Cl)cc1` the GI50 was 6.15 µM.

Target: T1, Geranylgeranyl transferase type-2 (Homo sapiens, UniProt P53611+Q92696)
T1 sequence (P53611 whole entry): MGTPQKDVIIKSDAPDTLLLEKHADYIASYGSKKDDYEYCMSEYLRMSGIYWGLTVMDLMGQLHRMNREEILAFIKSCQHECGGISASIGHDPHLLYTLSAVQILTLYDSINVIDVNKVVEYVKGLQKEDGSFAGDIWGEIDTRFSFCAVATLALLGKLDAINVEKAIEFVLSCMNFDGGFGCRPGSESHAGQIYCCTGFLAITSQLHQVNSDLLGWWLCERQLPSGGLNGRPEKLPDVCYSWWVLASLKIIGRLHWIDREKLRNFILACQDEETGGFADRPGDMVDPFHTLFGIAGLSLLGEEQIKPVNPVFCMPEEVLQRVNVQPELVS
T1 sequence (Q92696 whole entry): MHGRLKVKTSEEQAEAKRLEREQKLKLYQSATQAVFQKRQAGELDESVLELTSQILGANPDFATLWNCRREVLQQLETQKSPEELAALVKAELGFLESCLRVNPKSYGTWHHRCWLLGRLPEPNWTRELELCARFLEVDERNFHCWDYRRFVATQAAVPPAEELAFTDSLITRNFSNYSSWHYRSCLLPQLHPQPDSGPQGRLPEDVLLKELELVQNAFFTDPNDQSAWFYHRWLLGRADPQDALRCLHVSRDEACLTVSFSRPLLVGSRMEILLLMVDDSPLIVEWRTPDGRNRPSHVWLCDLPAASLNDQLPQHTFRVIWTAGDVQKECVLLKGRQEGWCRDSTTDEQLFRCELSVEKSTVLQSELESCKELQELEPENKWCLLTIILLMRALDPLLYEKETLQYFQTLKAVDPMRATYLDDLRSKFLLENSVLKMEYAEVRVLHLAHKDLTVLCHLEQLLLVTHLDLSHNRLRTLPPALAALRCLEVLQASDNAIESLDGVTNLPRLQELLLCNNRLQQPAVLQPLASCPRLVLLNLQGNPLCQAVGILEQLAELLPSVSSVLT
Assay: Inhibition of RabGGTase (unknown origin) using YPTI as substrate protein and [3H]geranylgeranyl pyrophosphate incubated for 20 mins by scintillation counting assay
Type: protein-complex assay
Conditions: not given
In the case of `CCCCCS[C@H]1[C@@H](C(=O)O)[C@H](c2ccc(Br)cc2)N(S(=O)(=O)c2ccc(C)cc2)[C@@H]1CCC`, the IC50 is reported as 3.6 µM.

Target: Protein farnesyltransferase (Rattus norvegicus, UniProt Q02293+Q04631)
Assay: Inhibition of rat recombinant FTase alpha/beta expressed in Escherichia coli using K-Ras4B as a substrate as and [3H]farnesyl pyrophosphate incubated for 30 mins by scintillation counting assay
Conditions: not given
With `CCCCCS[C@H]1[C@@H](C(=O)O)[C@H](c2ccc(Br)cc2)N(S(=O)(=O)c2ccc(C)cc2)[C@@H]1CCC` the IC50 was > 100 µM.

System: Jurkat
Assay: Antiproliferative activity against human Jurkat cells assessed as inhibition of cell proliferation incubated for 72 hrs by CCK8 assay
Type: functional, cell-based
Conditions: not given
In the case of `Cc1ccccc1S(=O)(=O)N1[C@@H](c2cccc(Cl)c2)C(C(=O)N[C@@H](CC(C)C)C(N)=O)=CC[C@H]1c1ccc(Cl)cc1`, the GI50 is reported as 6.1 µM.

System: MCF7
Assay: Antiproliferative activity against human MCF7 cells assessed as inhibition of cell proliferation incubated for 6 days by CCK8 assay
Type: functional, cell-based
Conditions: MCF7, 144 h
In the case of `CC(C)C[C@H](NC(=O)C1=CC[C@@H](c2cccc(Br)c2)N(S(=O)(=O)c2ccc(Cl)cc2)[C@H]1c1cccc(Cl)c1)C(N)=O`, the GI50 is reported as 3.43 µM.
Compound `Cc1ccccc1S(=O)(=O)N1[C@@H](c2cccc(Cl)c2)C(C(=O)N[C@@H](CC(C)C)C(N)=O)=CC[C@H]1c1ccc(Cl)cc1` has a GI50 of 10.9 µM.

System: not listed separately
Assay: Antiproliferative activity against human MCF10A cells assessed as inhibition of cell proliferation incubated for 72 hrs by CCK8 assay
Type: cell-based, MCF-10A
Conditions: not given
`CC(C)C[C@H](NC(=O)C1=CC[C@@H](c2cccc(Br)c2)N(S(=O)(=O)c2ccc(Cl)cc2)[C@H]1c1cccc(Cl)c1)C(N)=O` showed a GI50 at 72 h of 14.2 µM.
With `Cc1ccccc1S(=O)(=O)N1[C@@H](c2cccc(Cl)c2)C(C(=O)N[C@@H](CC(C)C)C(N)=O)=CC[C@H]1c1ccc(Cl)cc1` the GI50 at 72 h was > 20 µM.

System: MIA PaCa-2
Assay: Antiproliferative activity against human MIAPaCa2 cells assessed as inhibition of cell proliferation incubated for 72 hrs by CCK8 assay
Type: functional, cell-based
Conditions: MIA PaCa-2, 72 h
`Cc1ccccc1S(=O)(=O)N1[C@@H](c2ccc(Cl)cc2)C(C(=O)N[C@@H](Cc2ccccc2)C(=O)O)=C[C@H]1C(C)(C)C` gave a GI50 of 7.48 µM.
For `Cc1ccccc1S(=O)(=O)N1[C@@H](c2cccc(Cl)c2)C(C(=O)N[C@@H](CC(C)C)C(N)=O)=CC[C@H]1c1ccc(Cl)cc1`, the GI50 was 12 µM.

System: ASPC1
Assay: Antiproliferative activity against human AsPC1 cells assessed as inhibition of cell proliferation incubated for 6 days by CCK8 assay
Type: functional, cell-based
Conditions: ASPC1, 144 h
`Cc1ccccc1S(=O)(=O)N1[C@@H](c2ccc(Cl)cc2)C(C(=O)N[C@@H](Cc2ccccc2)C(=O)O)=C[C@H]1C(C)(C)C` showed a GI50 of 12.4 µM.

System: Capan-2
Assay: Antiproliferative activity against human Capan2 cells assessed as inhibition of cell proliferation incubated for 72 hrs by CCK8 assay
Type: functional, cell-based
Conditions: Capan-2, 72 h
`Cc1ccccc1S(=O)(=O)N1[C@@H](c2ccc(Cl)cc2)C(C(=O)N[C@@H](Cc2ccccc2)C(=O)O)=C[C@H]1C(C)(C)C` gave a GI50 of 11.5 µM.
Work on `Cc1ccccc1S(=O)(=O)N1[C@@H](c2cccc(Cl)c2)C(C(=O)N[C@@H](CC(C)C)C(N)=O)=CC[C@H]1c1ccc(Cl)cc1` yielded a GI50 of 14 µM.

System: CFPAC-1
Assay: Antiproliferative activity against human CFPAC-1 cells assessed as inhibition of cell proliferation incubated for 72 hrs by CCK8 assay
Type: functional, cell-based
Conditions: CFPAC-1, 72 h
`Cc1ccccc1S(=O)(=O)N1[C@@H](c2ccc(Cl)cc2)C(C(=O)N[C@@H](Cc2ccccc2)C(=O)O)=C[C@H]1C(C)(C)C` gave a GI50 of 6.38 µM.
For `Cc1ccccc1S(=O)(=O)N1[C@@H](c2cccc(Cl)c2)C(C(=O)N[C@@H](CC(C)C)C(N)=O)=CC[C@H]1c1ccc(Cl)cc1`, the GI50 was 13.7 µM.

System: HEK293
Assay: Inhibition of geranylgeranyltransferase type I in HEK293 cells expressing Myc-HA-tagged Rheb-WT assessed as effect on unprenylated Rap1 accumulation at 1.25 to 10 uM incubated for 48 hrs by SDS-PAGE and immunoblot analysis
Type: cell-based
Conditions: Homo sapiens
In the case of `COC(=O)[C@H](Cc1ccccc1)NCC(=O)OCC1=C[C@@H](C(C)(C)C)N(S(=O)(=O)c2ccccc2C)[C@H]1c1ccc(Cl)cc1`, the inhibition is reported as “Active”.

System: HEK293
Assay: Inhibition of geranylgeranyltransferase type I in HEK293 cells expressing Myc-HA-tagged Rheb-CVSL assessed as effect on unprenylated Rap1 accumulation at 5 to 10 uM incubated for 48 hrs by SDS-PAGE and immunoblot analysis
Type: cell-based
Conditions: Homo sapiens
For `COC(=O)[C@H](Cc1ccccc1)NCC(=O)OCC1=C[C@@H](C(C)(C)C)N(S(=O)(=O)c2ccccc2C)[C@H]1c1ccc(Cl)cc1`, the inhibition was “Active”.
